The values below come from patent US11358954B2, “PPAR agonists, compounds, pharmaceutical compositions, and methods of use thereof” (Mitobridge, Inc., priority 2016, dated 2022).

In one data set the target is T1, Human PPARδ (Homo sapiens, UniProt Q03181).
T1 construct: (PPARδ amino acid 128 to C-terminus); expressed in transfected cells; host or cells: CV-1 cells
T1 sequence (Q03181 128-441 limits assumed): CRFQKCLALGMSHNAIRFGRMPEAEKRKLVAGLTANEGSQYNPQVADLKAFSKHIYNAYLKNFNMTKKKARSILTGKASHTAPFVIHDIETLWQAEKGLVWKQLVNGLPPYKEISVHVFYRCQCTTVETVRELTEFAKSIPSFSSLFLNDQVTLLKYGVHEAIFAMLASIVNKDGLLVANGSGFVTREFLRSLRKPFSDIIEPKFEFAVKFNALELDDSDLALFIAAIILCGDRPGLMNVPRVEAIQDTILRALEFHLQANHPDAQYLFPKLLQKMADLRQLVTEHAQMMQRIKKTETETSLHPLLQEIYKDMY
As to the kind of experiment: PPARδ activity screen (GAL4-PPARδ LBD luciferase transactivation in CV-1 cells). Type of data set: cell-based. The conditions noted are these: 24 h compound treatment, luciferase reporter. The protocol:
CV-1 cells were grown in DMEM+10% charcoal stripped FCS. Cells were seeded into 384-well plates the day before transfection to give a confluency of 50-80% at transfection. A total of […] containing 0.64 micrograms pCMX-PPARDelta LBD, 0.1 micrograms pCMXβGal, 0.08 micrograms pGLMH2004 reporter and 0.02 micrograms pCMX empty vector was transfected per well using FuGene transfection reagent according to the manufacturer's instructions (Roche). Cells were allowed to express protein for 48 h followed by addition of compound.
Human PPARδ was used to PCR amplify the PPARδ LBD. […] Ensuing fusions were verified by sequencing.
All compounds were dissolved in DMSO and diluted 1:1000 upon addition to the cells. Compounds were tested in quadruple in concentrations ranging from 0.001 to 100 μM. Cells were treated with compound for 24 h followed by luciferase assay. […]
Medium including test compound was aspirated and washed with PBS. […] Light emission was quantified by counting on a Perkin Elmer Envision reader. […] Beta-galactosidase assays were performed in the microwell plates using a kit from Promega and read in a Perkin Elmer Envision reader. […]
The activity of a compound is calculated as fold induction compared to an untreated sample. […] EC50 values were calculated via non-linear regression using GraphPad PRISM (GraphPad Software, San Diego, Calif.).
On the technique in general: A reporter such as luciferase makes a cellular process visible.

In a further data set the target is T2, hERG (Homo sapiens, UniProt Q12809).
T2 construct: expressed in transfected cells
T2 sequence (Q12809 whole entry): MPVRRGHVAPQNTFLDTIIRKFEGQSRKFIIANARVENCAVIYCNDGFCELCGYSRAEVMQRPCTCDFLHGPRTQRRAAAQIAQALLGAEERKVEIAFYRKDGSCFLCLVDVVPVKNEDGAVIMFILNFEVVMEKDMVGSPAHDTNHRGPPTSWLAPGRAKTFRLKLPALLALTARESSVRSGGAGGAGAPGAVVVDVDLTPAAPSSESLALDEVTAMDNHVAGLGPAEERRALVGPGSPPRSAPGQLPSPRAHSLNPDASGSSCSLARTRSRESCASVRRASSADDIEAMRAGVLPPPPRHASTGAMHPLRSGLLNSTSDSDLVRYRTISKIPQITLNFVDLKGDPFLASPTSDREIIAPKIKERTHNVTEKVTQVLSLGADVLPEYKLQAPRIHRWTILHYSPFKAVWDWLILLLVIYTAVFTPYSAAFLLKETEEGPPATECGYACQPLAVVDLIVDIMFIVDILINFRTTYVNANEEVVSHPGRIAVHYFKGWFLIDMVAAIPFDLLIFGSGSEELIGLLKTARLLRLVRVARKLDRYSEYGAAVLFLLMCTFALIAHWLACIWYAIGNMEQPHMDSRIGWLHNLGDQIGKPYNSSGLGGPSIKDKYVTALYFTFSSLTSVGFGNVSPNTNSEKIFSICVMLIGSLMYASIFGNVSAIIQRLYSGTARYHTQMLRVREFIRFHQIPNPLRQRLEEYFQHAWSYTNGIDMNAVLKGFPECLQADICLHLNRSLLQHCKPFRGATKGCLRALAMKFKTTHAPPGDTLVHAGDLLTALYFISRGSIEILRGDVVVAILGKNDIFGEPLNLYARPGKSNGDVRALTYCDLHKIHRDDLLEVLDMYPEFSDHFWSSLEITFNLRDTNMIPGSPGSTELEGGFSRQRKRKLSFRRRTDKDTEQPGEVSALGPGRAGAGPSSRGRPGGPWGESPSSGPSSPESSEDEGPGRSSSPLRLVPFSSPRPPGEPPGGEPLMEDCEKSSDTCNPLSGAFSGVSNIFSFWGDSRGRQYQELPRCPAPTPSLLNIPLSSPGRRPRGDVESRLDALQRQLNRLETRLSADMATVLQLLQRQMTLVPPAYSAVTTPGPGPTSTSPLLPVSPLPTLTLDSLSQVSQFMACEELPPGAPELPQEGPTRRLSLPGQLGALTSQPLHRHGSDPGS
As to the kind of experiment: hERG inhibition screen (patch clamp, peak hERG tail current). Type of data set: cell-based. On the procedure: Cells were cultured in DMEM/F-12 medium supplemented with 10% fetal bovine serum and 400 μg/mL Geneticin. Cells were grown in 75 cm tissue culture flasks maintained at 37° C. with 5% CO2 and passaged every 3 days using 0.05/0.02% Trypsin/EDTA (confluency of <80%). For the purpose of electrophysiology, cells were seeded in 25 cm2 tissue culture flasks. Three day old cells were harvested using Trypsin/EDTA (0.025/0.01%) as detaching agent and resuspended in external recording solution.
Preweighed quantity of test item was dissolved in tissue culture grade DMSO to prepare a primary stock solution. The strength of the primary stock was 1000× of the intended highest test concentration. Subsequently, working stock solutions of appropriate strengths was prepared by dilution of primary stock with DMSO. The stock solutions were aliquoted into eppendorff tubes and stored at −20° C. freezer (<0° C.) until use. On the day of experiment, aliquots were thawed and used for preparing the assay solution (test solution).
Test solutions were prepared fresh by adding 4 μL of stock solution in to 3996 μL external recording solution such that the final DMSO concentration in the assay solution was 0.1% v/v. Upon addition, solution was inspected carefully against light by naked eye for any indications of precipitation.
Electrophysiological Procedures: • Electrophysiology Setup: Instrument: Port-A-Patch • Patch clamp type: Semiautomatic • Manufacturer: Nanion technologies, GmBH Germany • Electrophysiology chips: Glasscoated NPC-1 chips • Recording Condition: Room temperature • Compound Addition Protocol: Manual addition—20 μL of solution was added on one side of the chip, followed by withdrawal of 20 μL from the other side. This way of addition and withdrawal was repeated at least 4-5 times to ensure actual test concentration is reached. • Test Concentration Exposure Period: Cells were exposed to each test concentration for 3 min or till a steady state block was reached • Voltage Protocol: −40 mV subtraction pulse for 0.5 sec; +40 mV activation pre-pulse for 2 sec; −40 mV test pulse for 2 sec and −80 mV holding potential repeated at every 10 sec • Assay end point: Peak hERG tail current recorded when the voltage was reduced from +40 mV to −40 mV.
The steady state current after the application of 0.1% DMSO was considered as baseline (control current). Steady state current obtained at the end of each test concentration addition was used to calculate the % hERG current inhibited at each concentration. Any rundown due to vehicle addition was corrected to calculate % hERG current inhibition. Each cell acted as its own control. Average current of last 3-5 sweeps of acceptable quality was considered for calculation of % inhibition. Sweeps with artifacts and noise were omitted while calculation.
For orientation: hERG is a cardiac potassium channel; its block is linked to QT prolongation.

A short description of data set [1]: Pharmacokinetic screening in male CD-1 mice. The format is in vivo. The conditions noted are these: mouse. The protocol:
(§1) In this example, the PK profile of several PPARδ agonists disclosed herein in male CD-1 mice or Wistar rats was determined by the methods disclosed in Boxenbaum H. (1980) Interspecies variation in liver weight, hepatic blood flow and antipyrine intrinsic clearance in extrapolation of Benzodiazepines and phenytoin. J. Pharmacokinet Biopharm 8: 165-176. Similar methods can be used to analyze other compounds provided herein.
(§2) All compounds were separately administered to CD-1 mice at 1 mg/kg iv or 3 mg/kg po. The compounds were separately administered to male Wistar rats 1 mg/kg iv or 3 mg/kg po. The species M refers to mouse and R reports to rat in the following table. NA means not available.

A short description of data set [2]: Pharmacokinetic screening in male Wistar rats. The conditions noted are these: in vivo, rat. On the procedure: as §1, §2

Structures are written as SMILES.

For `O=C(O)CCCCCOc1ccccc1Cn1c(C(F)(F)F)cnc1-c1ccc(-c2ccco2)cc1` [Compound 2h, 6-(2-((2-(4-(furan-2-yl)phenyl)-5-(trifluoromethyl)-1H-imidazol-1-yl)methyl)phenoxy)hexanoic acid], at Human PPARδ, the concentration for a half-maximal effect (EC50) (usually the concentration needed to bring the measured effect to its halfway point) was determined as 2 nM. Further, 10 µM produced 7% inhibition on hERG (human).
`C[C@H](CCCOc1ccccc1Cn1c(C(F)(F)F)cnc1-c1ccc(F)cc1)CC(=O)O` [Compound 2e, (3R)-6-(2-((2-(4-fluorophenyl)-5-(trifluoromethyl)-1H-imidazol-1-yl)methyl)phenoxy)-3-methylhexanoic acid] had an EC50 at Human PPARδ of 25 nM.
As for `C[C@H](CCCOc1ccccc1Cn1c(Cl)cnc1-c1ccc(C(F)(F)F)cc1)CC(=O)O` [Compound 2b, (R)-6-(2-((5-chloro-2-(4-(trifluoromethyl)phenyl)-1H-imidazol-1-yl)methyl)phenoxy)-3-methylhexanoic acid], the “hERG % Inhibition at 10 μM” value at hERG was determined as 3.00%. Besides, the total exposure AUC(0-inf) – broadly, total exposure, with the tail of the curve extrapolated – in data set [1] (male, CD-1, in vivo, 1 mg/kg, 1.0 mpk iv, read-out: IV PK AUC (0-inf)) was determined as 1060 ng·h/mL; in data set [1] (male, CD-1, in vivo, 3 mg/kg, 3.0 mpk po, read-out: Oral PK AUC (0-inf)), 3880 ng·h/mL; in data set [2] (1 mg/kg, 1.0 mpk iv, read-out: IV PK AUC (0-inf)), 2970 ng·h/mL; in data set [2] (3 mg/kg, 3.0 mpk po, read-out: Oral PK AUC (0-inf)) it was 7790 ng·h/mL. For the same compound, the half-life in data set [1] (male, CD-1, in vivo, 1 mg/kg, 1.0 mpk iv, read-out: IV PK Beta T½ (converted)) is 3.5 h; in data set [1] (male, CD-1, in vivo, 3 mg/kg, 3.0 mpk po, read-out: Oral PK T½ (converted)), 4.3 h; in data set [2] (1 mg/kg, 1.0 mpk iv, read-out: IV PK Beta T½ (converted)), 4.8 h; in data set [2] (3 mg/kg, 3.0 mpk po, read-out: Oral PK T½ (converted)), 4.1 h. The C0 in data set [1] (male, CD-1, in vivo, 1 mg/kg, 1.0 mpk iv, read-out: IV PK C0) was 810 ng/mL; in data set [2] (1 mg/kg, 1.0 mpk iv, read-out: IV PK C0) it was 2120 ng/mL. Moreover, the Vd was determined as 3.1 L/kg in data set [1] (male, CD-1, in vivo, 1 mg/kg, 1.0 mpk iv, read-out: IV PK Vss) and 1.2 L/kg in data set [2] (1 mg/kg, 1.0 mpk iv, read-out: IV PK Vss). In addition, the bioavailability in data set [1] (male, CD-1, in vivo, 3 mg/kg, 3.0 mpk po vs 1.0 mpk iv, read-out: Oral PK % F) was determined as 100%; in data set [2] (3 mg/kg, 3.0 mpk po vs 1.0 mpk iv, read-out: Oral PK % F) it was 87%. The peak concentration (Cmax) (commonly the peak of the concentration-time curve) turned out to be 2950 ng/mL in data set [1] (male, CD-1, in vivo, 3 mg/kg, 3.0 mpk po, read-out: Oral PK Cmax) and 2380 ng/mL in data set [2] (3 mg/kg, 3.0 mpk po, read-out: Oral PK Cmax). The Tmax in data set [1] (male, CD-1, in vivo, 3 mg/kg, 3.0 mpk po, read-out: Oral PK T max) came to 0.5 h; in data set [2] (3 mg/kg, 3.0 mpk po, read-out: Oral PK T max), 0.3 h. For the same compound, the “IV PK Cl” value in data set [1] (1.0 mpk iv) is 16 mL/min/kg. The clearance in data set [2] (1 mg/kg, 1.0 mpk iv, read-out: IV PK Cl) worked out at 5.8 mL/min/kg.
